# What was measured:
# Format in all cases: biochemical
# cathepsin B = cathepsin B (Homo sapiens, UniProt P07858); assay: Inhibition of cathepsin B, incubation method; conditions: second-order rate constant, NI = no inhibition; for kinact/KI: pH 6, read-out: kobs/[I] cathepsin B
# Source text: (§1) The release of 7-amino-4-methylcoumarin was monitored (λex=360 nm, λem=465 nm) using a Tecan Spectra Fluor microplate reader. Pseudo first-order inactivation rate constants were obtained from plots of In vt/vo versus time.
# papain = target: T1, papain (Carica papaya, UniProt P00784); assay: Inhibition of papain, incubation method; conditions: second-order rate constant, NI = no inhibition; for kinact/KI: pH 7.5, read-out: kobs/[I] papain
# T1 sequence (P00784 134-345): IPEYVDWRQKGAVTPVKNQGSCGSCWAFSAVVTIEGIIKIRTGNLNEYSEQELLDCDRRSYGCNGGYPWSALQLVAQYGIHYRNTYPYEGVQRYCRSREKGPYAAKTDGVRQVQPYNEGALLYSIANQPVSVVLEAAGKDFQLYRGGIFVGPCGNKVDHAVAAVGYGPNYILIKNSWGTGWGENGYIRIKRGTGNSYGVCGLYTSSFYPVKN
# Description: as §1
# The incubation method was also used for papain. The inhibition incubation buffer for papain was 50 mM Hepes buffer at pH 7.5, containing 2.5 mM DTT and 2.5 mM EDTA. The assay used the substrate Z-Phe-Arg-pNA (53.7 μM) in the same buffer. The approximate concentration of papain added to the incubation buffer was 0.29 mg/mL. The release of p-nitroanilide was monitored at 405 nm with a Molecular Devices Thermomax microplate reader.
# caspase-1 = target: T2, caspase-1 (Homo sapiens, UniProt P29466, D381E); assay: Caspase-1 progress curve assay; conditions: D381E variant, substrate Ac-YVAD-AMC, 30° C.
# T2 construct: His tag (N); made in house; host or cells: E. coli
# T2 sequence (P29466 120-297 limits assumed): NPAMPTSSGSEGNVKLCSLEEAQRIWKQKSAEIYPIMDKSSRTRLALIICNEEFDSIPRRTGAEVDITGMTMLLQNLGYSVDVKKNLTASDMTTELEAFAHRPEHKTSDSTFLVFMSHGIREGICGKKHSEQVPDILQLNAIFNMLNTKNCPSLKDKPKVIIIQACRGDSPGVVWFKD
# T2 sequence (P29466 317-404 D381E limits assumed): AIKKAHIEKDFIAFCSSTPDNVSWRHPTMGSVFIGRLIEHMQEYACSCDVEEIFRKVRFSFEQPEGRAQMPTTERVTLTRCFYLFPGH
# Source text: Caspase-1. The preparation of the autolytically stable caspase-1 variant used in these studies has been described previously. Briefly, the variant contains a mutation (D381E) which renders it resistant to autolytic inactivation, but has no detectable affect on enzyme activity as compared to the naturally occurring enzyme. The enzyme variant was expressed in E. coli, purified first by immobilized metal chromatography via the N-terminal N-His tag, treated with excess oxidized glutathione to stabilize the reactive thiolate, and then re-purified by size-exclusion chromatography.
# Inhibition data was measured using the progress curve assay method. Serial dilutions of each compound were prepared using an initial 8-fold dilution of a DMSO stock into HGE (100 mM HEPES,20% glycerol v/v, 0.5 mM EDTA), followed by seven serial two-fold dilutions into HGE and 12.5% DMSO, thus maintaining constant DMSO through the dilution series. Ten μL of diluted stocks or of vehicle (HGE and 12.5% DMSO) were placed in triplicate onto a 96-well microtiter plate, allowing several compounds to be tested on each plate. The plate was covered to minimize evaporation, and the plate was pre-warmed to 30° C. for 20 minutes. Enzyme was diluted into 10.0 mL of assay buffer (HGE, 5 mM DTT, plus 15 μM Ac-YVAD-AMC, 2 nM approximate final enzyme concentration), and this activated reaction mixture was added to the plate at 90 μL/well. Progress of substrate hydrolysis was monitored for 900 s in a LabSystems (Needham, Mass.) Fluoroskan Ascent fluorescent plate-reader using 385 and 460 nm excitation and emission filters, respectively, and a photomultiplier gain setting of 10. Triplicate curves were averaged and fit by nonlinear regression to the equation for irreversible inactivation shown below.
# [formula] where F0 was routinely fixed to zero, since fluorescence values were always adjusted to an origin of 0. The second order rate constant kon (M^−1s^−1) was obtained from the slopes by linear regression, and errors represent the standard deviation of the regression slope.
# caspase-3 = target: T3, caspase-3 (Homo sapiens, UniProt P42574); assay: Caspase-3 progress curve assay; conditions: substrate Z-DEVD-AFC; NI = no inhibition
# T3 construct: made in house; host or cells: E. coli
# T3 sequence (P42574 29-175 limits assumed): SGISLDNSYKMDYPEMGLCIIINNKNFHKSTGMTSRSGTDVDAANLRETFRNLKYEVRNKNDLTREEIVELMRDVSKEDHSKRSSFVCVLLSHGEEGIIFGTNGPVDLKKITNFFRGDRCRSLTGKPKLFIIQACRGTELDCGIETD
# T3 sequence (P42574 176-277 limits assumed): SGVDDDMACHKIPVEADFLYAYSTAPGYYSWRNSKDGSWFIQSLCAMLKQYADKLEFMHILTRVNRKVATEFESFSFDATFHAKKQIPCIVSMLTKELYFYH
# Description: Caspase-3, -6, and -8. Caspase-3, -6 and -8 were expressed in E. coli and purified according to methods previously described by Stennicke and Salvesen. Assays using the fluorogenic substrate Z-DEVD-AFC (λex=400 nm, λem=505 nm) were carried out on a Molecular Devices fMax fluorescence microplate reader. Inhibition rates and equilibria were determined by the progress curve method. The standard 100 μL reaction was started by adding enzyme to a mixture of substrate (final concentration of Z-DEVD-AFC 100 μM) and various amounts of inhibitor in buffer (50 mM Hepes, 100 mM NaCl, 0.1% (w/v) CHAPS, sucrose 10% (w/v), and 10 mM DTT, at pH 7.4). The caspases were pre-activated for 10 min at 37° C. in the presence of 10 mM DTT.
k2 caspase-1 (caspase-1) [M⁻¹ s⁻¹],k2 caspase-3 (caspase-3) [M⁻¹ s⁻¹],kobs/[I] papain (papain) [M⁻¹ s⁻¹],SMILES,also measured
,,,"CCOC(=O)[C@H]1O[C@@H]1C(=O)N(CCC(N)=O)NC(=O)[C@H](Cc1ccccc1)NC(=O)[C@H](CC(C)C)NC(=O)OCc1ccccc1 [Cbz-Leu-Phe-AGln-(2S, 3S)-EP-COOEt, (2S,3S)-3-(N^2-(N-Benzyloxycarbonylleucylphenylalanyl)-N^1-carbamoylethylhydrazinocarbonyl)oxirane-2-carboxylic Acid Ethyl Ester]",kinact/KI (cathepsin B): 4.73 M⁻¹ s⁻¹
19570,3250 ± 160,,"CCOC(=O)[C@@H]1O[C@H]1C(=O)N(CC(=O)O)NC(=O)[C@@H](NC(=O)[C@H](CCC(=O)O)NC(=O)[C@H](CC(C)C)NC(=O)OCc1ccccc1)[C@@H](C)O [26c (R,R), (2R,3R)-3-(N^2-(N-Benzyloxycarbonylleucylglutamylthreonyl)-N^1-carboxymethylhydrazinocarbonyl)oxirane-2-carboxylic Acid Ethyl Ester]",kinact/KI (papain): 0.24 M⁻¹ s⁻¹
,,,"CCOC(=O)[C@@H]1O[C@H]1C(=O)N(CC(N)=O)NC(=O)[C@H](C)NC(=O)[C@H](C)NC(=O)OCc1ccccc1 (relative stereo) [Cbz-Ala-Ala-AAsn-trans-EP-COOEt, trans-3-(N^2-(N-Benzyloxycarbonylalanylalanyl)-N^1-carbamoylmethylhydrazinocarbonyl)oxirane-2-carboxylic Acid Ethyl Ester]",kinact/KI (cathepsin B): 1.27 M⁻¹ s⁻¹
25730,3210 ± 315,,"CCOC(=O)[C@H]1O[C@@H]1C(=O)N(CC(=O)O)NC(=O)[C@@H](NC(=O)[C@H](CCC(=O)O)NC(=O)[C@H](CC(C)C)NC(=O)OCc1ccccc1)[C@@H](C)O [26c (S,S), (2S,3S)-3-(N^2-(N-Benzyloxycarbonylleucylglutamylthreonyl)-N^1-carboxymethylhydrazinocarbonyl)oxirane-2-carboxylic Acid Ethyl Ester]",kinact/KI (papain): 0.47 M⁻¹ s⁻¹
,,1.39,"CCOC(=O)[C@@H]1O[C@H]1C(=O)N(CC(C)C)NC(=O)C(Cc1ccc2ccccc2c1)NC(=O)CCC(=O)O (relative stereo) [Suc-Np2-ALeu-trans-EP-COOEt, trans-3-(N^2-(N-Succinyl-2-naphthylalanyl)-N^1-isobutylhydrazinocarbonyl)oxirane-2-carboxylic Acid Ethyl Ester]",kobs/[I] cathepsin B (cathepsin B): 0.8 M⁻¹ s⁻¹
,,0.7,CC(C)CN(NC(=O)[C@H](Cc1ccccc1)NC(=O)OCc1ccccc1)C(=O)[C@@H]1O[C@H]1CCc1ccccc1 (relative stereo) [Cbz-Phe-ALeu-trans-EP-CH2CH2Ph],
,,0.5,"O=C(N[C@@H](Cc1ccccc1)C(=O)NN(Cc1ccccc1)C(=O)[C@@H]1O[C@H]1CCc1ccccc1)OCc1ccccc1 (relative stereo) [Cbz-Phe-APhe-trans-EP-CH2CH2Ph, trans-3-(N^2-(N-3-Benzyloxyphenylalanyl)-N^1-benzylhydrazinocarbonyl)-2-(2-phenylethyl)oxirane]",
,,,"CCOC(=O)[C@@H]1O[C@H]1C(=O)N(CC(C)C)NC(=O)[C@H](CC(C)C)NC(=O)[C@H](CC(C)C)NC(=O)OCc1ccccc1 [Cbz-Leu-Leu-ALeu-(2R, 3R)-EP-COOEt, (2R,3R)-3-(N^2-(N-Benzyloxycarbonylleucylleucyl)-N^1-isobutylhydrazinocarbonyl)oxirane-2-carboxylic Acid Ethyl Ester]",kinact/KI (papain): 20.6 M⁻¹ s⁻¹
52140 ± 5295,1470 ± 40,,"CC(C)[C@H](NC(=O)CCc1ccccc1)C(=O)N[C@@H](C)C(=O)NN(CC(=O)O)C(=O)[C@H]1O[C@@H]1C(=O)OCc1ccccc1 [23d (S,S)]",kobs/[I] cathepsin B (cathepsin B): 0.81 M⁻¹ s⁻¹
,,,"C[C@H](NC(=O)OCc1ccccc1)C(=O)N[C@@H](C)C(=O)NN(CC(N)=O)C(=O)[C@@H]1O[C@H]1C(=O)OCc1ccccc1 (relative stereo) [Cbz-Ala-Ala-AAsn-trans-EP-COOCH2Ph, trans-3-(N^2-(N-Benzyloxycarbonylalanylalanyl)-N^1-carbamoylmethylhydrazinocarbonyl)oxirane-2-carboxylic Acid Benzyl Ester]",kinact/KI (cathepsin B): 1.09 M⁻¹ s⁻¹
,,0.5,"CCCCC(NC(=O)OC(C)(C)C)C(=O)NN(CCc1ccccc1)C(=O)C1OC1CCc1ccccc1 (stereo not drawn) [Boc-Nle-AHph-trans-EP-CH2CH2Ph, Boc-Nle-AHph-(trans)-EP-CH2CH2Ph]",
,,,"O=C(OCc1ccccc1)N(NCc1ccccc1)C(=O)[C@@H]1O[C@H]1CCc1ccccc1 (relative stereo) [Cbz-APhe-trans-EP-CH2CH2Ph, trans-3-(N^2-Benzyl-N^1-benzyloxycarbonylhydrazinocarbonyl)-2-(2-phenylethyl)oxirane]",kinact/KI (papain): 0.92 M⁻¹ s⁻¹
25420 ± 4013,1097820 ± 94860,,"CC(C)[C@H](NC(=O)[C@H](CCC(=O)O)NC(=O)[C@H](CC(=O)O)NC(=O)OCc1ccccc1)C(=O)NN(CC(=O)O)C(=O)[C@H]1O[C@@H]1C(=O)NCc1ccccc1 [25g, (2S,3S)-2-(2-Benzylcarbamoyl)-3-(N^2-(N-benzyloxycarbonylaspartylglutamylvalyl)-N^1-carboxymethylhydrazinocarbonyl)oxirane]",
12260 ± 19,510 ± 100,,"CC(C)[C@H](NC(=O)CCc1ccccc1)C(=O)N[C@@H](C)C(=O)NN(CC(=O)O)C(=O)[C@H]1O[C@@H]1C(=O)NCC(O)c1ccccc1 (stereo partly drawn) [23i (S,S), (2S,3S)-2-(2-Hydroxy-2-phenylethylcarbamoyl)-3-(N^2-(3-phenylpropanoylvalylalanyl)-N^1-carboxymethylhydrazinocarbonyl)oxirane]",
12372,4080 ± 360,,"CCOC(=O)[C@H]1O[C@@H]1C(=O)N(CC(=O)O)NC(=O)[C@@H](NC(=O)[C@H](CCC(=O)O)NC(=O)[C@@H](NC(=O)OCc1ccccc1)[C@@H](C)CC)[C@@H](C)O [27c (S,S), (2S,3S)-3-(N^2-(N-Benzyloxycarbonylisoleucylglutamylthreonyl)-N^1-carboxymethylhydrazinocarbonyl)oxirane-2-carboxylic Acid Ethyl Ester]",

SMILES,k2 caspase-1 (caspase-1) [M⁻¹ s⁻¹],k2 caspase-3 (caspase-3) [M⁻¹ s⁻¹],kobs/[I] papain (papain) [M⁻¹ s⁻¹],also measured
"CCC(NC(=O)OC(C)(C)C)C(=O)NN(CCc1ccccc1)C(=O)[C@@H]1O[C@H]1CCc1ccccc1 (relative stereo) [Boc-Abu-AHph-trans-EP-CH2CH2Ph, trans-3-(N^2-(N-tert-Butoxycarbonyl-α-aminobutanoyl)-N^1-phenylethylhydrazinocarbonyl)-2-(2-phenylethyl)oxirane]",,,0.2,
